In patent US20130053430A1, “MODULATION OF CETP EXPRESSION” (Isis Pharmaceuticals, Inc., priority 2010, published 2013):
Strand notation (5' to 3'): a small letter for the sugar, then the base; units joined by * are phosphorothioate-linked, units joined directly phosphodiester-linked; [ ] holds rarer units or linkages, { } end groups; capitals alone tell only the bases. e = 2'-O-(2-methoxyethyl) (MOE); [5mC] = 5-methylcytosine; d = 2'-deoxy (DNA)

Experiments:
[1] = system: human CETP mRNA; assay: Antisense inhibition of human CETP mRNA in SW872 liposarcoma cells (Example 1); type: cell-based; conditions: 150 nM antisense oligonucleotide, lipofectin, ~24 hours, relative to untreated control cells
Method: Antisense oligonucleotides targeted to a CETP nucleic acid were tested for their effect on CETP mRNA transcript in vitro. Cultured SW872 liposarcoma cells at a density of 50,000 cells per well in a 24-well plate were transfected using lipofectin reagent with 150 nM antisense oligonucleotide. After approximately 24 hours, RNA was isolated from the cells and CETP mRNA levels were measured by quantitative real-time PCR. A human primer probe set (forward sequence […], designated herein as SEQ ID NO: 38; reverse sequence GGCTCACGCCTTTGCTGTT, designated herein as SEQ ID NO: 39; probe sequence […], designated herein as SEQ ID NO: 40) was used to quantitate CETP mRNA. CETP mRNA transcript levels were adjusted according to total RNA content, as measured by the house-keeping gene, GAPDH mRNA levels. GAPDH was measured using a primer probe set with the sequence as set forth in SEQ ID NOs: 10, 11, 13. Results are presented as percent inhibition of CETP, relative to untreated control cells.
The antisense oligonucleotides in Table 3 are 5-10-5 gapmers, where the gap segment comprises ten 2′-deoxynucleosides and each wing segment comprises five 2′-MOE nucleosides. Each nucleotide in the 5′ wing segment and each nucleotide in the 3′ wing segment has a 2′-MOE modification. The internucleoside linkages throughout each gapmer are phosphorothioate (P═S) linkages. All cytosine residues throughout each gapmer are 5-methylcytosines. ‘Target start site’ indicates the 5′-most nucleotide to which the antisense oligonucleotide is targeted. ‘Target stop site’ indicates the 3′-most nucleotide to which the antisense oligonucleotide is targeted. All the antisense oligonucleotides listed in Table 3 target human CETP mRNA, designated herein as SEQ ID NO: 1 (GENBANK Accession No. M30185.1).

[2] = system: human CETP mRNA; assay: Antisense inhibition of human CETP mRNA in primary hepatocytes from huCETP transgenic mice (Example 4); type: cell-based, mouse; conditions: cytofectin, ~24 hours
Method: Transgenic mice expressing human CETP, controlled by its natural flanking region, increase expression of this gene in response to hypercholesterolemia (Jiang, X. C. et al., J. Clin. Invest. 1992. 90: 1290-1295). These mice were utilized for the following studies. Antisense oligonucleotides targeted to a CETP nucleic acid and described in Example 1 were tested for their effect on CETP mRNA transcript in vitro. Cultured primary hepatocytes from huCETP transgenic mice, at a density of 17,500 cells per well in a 96-well plate, were transfected using cytofectin reagent with 100 nM or 200 nM antisense oligonucleotide. After approximately 24 hours, RNA was isolated from the cells and CETP mRNA levels were measured by quantitative real-time PCR. CETP mRNA transcript levels were adjusted according to total RNA content, as measured by the house-keeping gene, GAPDH mRNA levels. Results are presented in Table 6 as percent inhibition of CETP, relative to untreated control cells.

Substance | % inhibition [1] | Percent inhibition of human CETP mRNA ([2]; 100 nM) | Percent inhibition of human CETP mRNA ([2]; 200 nM)
ISIS 349454: 5-10-5 MOE gapmer GTGCCTTTGGAGCAGGCATG (eG*eT*eG*e[5mC]*e[5mC]*dT*dT*dT*dG*dG*dA*dG*d[5mC]*dA*dG*eG*e[5mC]*eA*eT*eG) | 46% | 69% | 68%
ISIS 349455: 5-10-5 MOE gapmer CGATGCCTGCCTCGTGCGAG (e[5mC]*eG*eA*eT*eG*d[5mC]*d[5mC]*dT*dG*d[5mC]*d[5mC]*dT*d[5mC]*dG*dT*eG*e[5mC]*eG*eA*eG) | 35% | 25% | 17%
ISIS 349456: 5-10-5 MOE gapmer TCGTGGTTCAACACCAGGAG (eT*e[5mC]*eG*eT*eG*dG*dT*dT*d[5mC]*dA*dA*d[5mC]*dA*d[5mC]*d[5mC]*eA*eG*eG*eA*eG) | 68% | 74% | 51%
ISIS 349457: 5-10-5 MOE gapmer TCTGGATCACCTTGGCAGTC (eT*e[5mC]*eT*eG*eG*dA*dT*d[5mC]*dA*d[5mC]*d[5mC]*dT*dT*dG*dG*e[5mC]*eA*eG*eT*e[5mC]) | 52% | 42% | 30%
ISIS 349458: 5-10-5 MOE gapmer GGTAGCTGGCTCGCTGGAAG (eG*eG*eT*eA*eG*d[5mC]*dT*dG*dG*d[5mC]*dT*d[5mC]*dG*d[5mC]*dT*eG*eG*eA*eA*eG) | 18% | 65% | 32%
ISIS 349459: 5-10-5 MOE gapmer CTTCTCGCCCGTGATATCTG (e[5mC]*eT*eT*e[5mC]*eT*d[5mC]*dG*d[5mC]*d[5mC]*d[5mC]*dG*dT*dG*dA*dT*eA*eT*e[5mC]*eT*eG) | 79% | 50% | 63%
ISIS 349460: 5-10-5 MOE gapmer GCATCATGGCCTTCTCGCCC (eG*e[5mC]*eA*eT*e[5mC]*dA*dT*dG*dG*d[5mC]*d[5mC]*dT*dT*d[5mC]*dT*e[5mC]*eG*e[5mC]*e[5mC]*e[5mC]) | 80% | 67% | 76%
ISIS 349462: 5-10-5 MOE gapmer ATCTGGATGTTGTGCAACCC (eA*eT*e[5mC]*eT*eG*dG*dA*dT*dG*dT*dT*dG*dT*dG*d[5mC]*eA*eA*e[5mC]*e[5mC]*e[5mC]) | 76% | 60% | 76%
ISIS 349463: 5-10-5 MOE gapmer CTGCTGGCGATGGACAAGTG (e[5mC]*eT*eG*e[5mC]*eT*dG*dG*d[5mC]*dG*dA*dT*dG*dG*dA*d[5mC]*eA*eA*eG*eT*eG) | 77% | 58% | 62%
ISIS 349464: 5-10-5 MOE gapmer CTTCCACCAGCTCCACCTGG (e[5mC]*eT*eT*e[5mC]*e[5mC]*dA*d[5mC]*d[5mC]*dA*dG*d[5mC]*dT*d[5mC]*d[5mC]*dA*e[5mC]*e[5mC]*eT*eG*eG) | 50% | 8% | 56%
ISIS 349466: 5-10-5 MOE gapmer CCACAGACACGTTCTGAATG (e[5mC]*e[5mC]*eA*e[5mC]*eA*dG*dA*d[5mC]*dA*d[5mC]*dG*dT*dT*d[5mC]*dT*eG*eA*eA*eT*eG) | 15% | 57% | 81%
ISIS 349467: 5-10-5 MOE gapmer GTGGTGTAGCCATACTTCAG (eG*eT*eG*eG*eT*dG*dT*dA*dG*d[5mC]*d[5mC]*dA*dT*dA*d[5mC]*eT*eT*e[5mC]*eA*eG) | 35% | 57% | 51%
ISIS 349468: 5-10-5 MOE gapmer TCAATACCCAGCCACCAGGC (eT*e[5mC]*eA*eA*eT*dA*d[5mC]*d[5mC]*d[5mC]*dA*dG*d[5mC]*d[5mC]*dA*d[5mC]*e[5mC]*eA*eG*eG*e[5mC]) | 33% | 53% | 50%
ISIS 349469: 5-10-5 MOE gapmer TCTCGAAGTCAATGGACTGA (eT*e[5mC]*eT*e[5mC]*eG*dA*dA*dG*dT*d[5mC]*dA*dA*dT*dG*dG*eA*e[5mC]*eT*eG*eA) | 70% | 40% | 66%
ISIS 349470: 5-10-5 MOE gapmer GAGGTCAATGGCAGAGTCGA (antisense eG*eA*eG*eG*eT*d[5mC]*dA*dA*dT*dG*dG*d[5mC]*dA*dG*dA*eG*eT*e[5mC]*eG*eA) | 59% | 64% | 49%
ISIS 349471: 5-10-5 MOE gapmer GTCAGCTGTGTGTTGATCTG (eG*eT*e[5mC]*eA*eG*d[5mC]*dT*dG*dT*dG*dT*dG*dT*dT*dG*eA*eT*e[5mC]*eT*eG) | 32% | 70% | 66%
ISIS 349472: 5-10-5 MOE gapmer GCACTCTACCAGAGTCACAG (eG*e[5mC]*eA*e[5mC]*eT*d[5mC]*dT*dA*d[5mC]*d[5mC]*dA*dG*dA*dG*dT*e[5mC]*eA*e[5mC]*eA*eG) | 39% | 25% | 45%
ISIS 349473: 5-10-5 MOE gapmer AGCAGCTTATGGAAAGACAG (eA*eG*e[5mC]*eA*eG*d[5mC]*dT*dT*dA*dT*dG*dG*dA*dA*dA*eG*eA*e[5mC]*eA*eG) | 72% | 55% | 61%
ISIS 349474: 5-10-5 MOE gapmer CGCTCCCCTTGGAGATGCAG (e[5mC]*eG*e[5mC]*eT*e[5mC]*d[5mC]*d[5mC]*d[5mC]*dT*dT*dG*dG*dA*dG*dA*eT*eG*e[5mC]*eA*eG) | 76% | 64% | 48%
ISIS 349475: 5-10-5 MOE gapmer GCTTGATCCACCCAGGCTCT (eG*e[5mC]*eT*eT*eG*dA*dT*d[5mC]*d[5mC]*dA*d[5mC]*d[5mC]*d[5mC]*dA*dG*eG*e[5mC]*eT*e[5mC]*eT) | 5% | 0% | 0%
ISIS 349476: 5-10-5 MOE gapmer CCTTCAGGACCAGCTTCAGG (e[5mC]*e[5mC]*eT*eT*e[5mC]*dA*dG*dG*dA*d[5mC]*d[5mC]*dA*dG*d[5mC]*dT*eT*e[5mC]*eA*eG*eG) | 59% | 49% | 60%
ISIS 349477: 5-10-5 MOE gapmer GATCTCTTTGCAGATCTGTC (eG*eA*eT*e[5mC]*eT*d[5mC]*dT*dT*dT*dG*d[5mC]*dA*dG*dA*dT*e[5mC]*eT*eG*eT*e[5mC]) | 41% | 44% | 47%
ISIS 349478: 5-10-5 MOE gapmer ATGATGTTAGAGATGACGTT (eA*eT*eG*eA*eT*dG*dT*dT*dA*dG*dA*dG*dA*dT*dG*eA*e[5mC]*eG*eT*eT) | 48% | 6% | 33%
ISIS 349479: 5-10-5 MOE gapmer CTGGCAGCCCTTGTCTGGAC (e[5mC]*eT*eG*eG*e[5mC]*dA*dG*d[5mC]*d[5mC]*d[5mC]*dT*dT*dG*dT*d[5mC]*eT*eG*eG*eA*e[5mC]) | 67% | 80% | 66%
ISIS 349480: 5-10-5 MOE gapmer TGTCTCCATCTGAAAGGATG (eT*eG*eT*e[5mC]*eT*d[5mC]*d[5mC]*dA*dT*d[5mC]*dT*dG*dA*dA*dA*eG*eG*eA*eT*eG) | 74% | 46% | 40%
ISIS 349481: 5-10-5 MOE gapmer AGGTAGGAGGCTGTGATGAC (eA*eG*eG*eT*eA*dG*dG*dA*dG*dG*d[5mC]*dT*dG*dT*dG*eA*eT*eG*eA*e[5mC]) | 66% | 79% | 65%
